Results published in patent publication US10961200B2, “Small molecule inhibitors of lactate dehydrogenase and methods of use thereof” (THE UNITED STATES OF AMERICA, AS REPRESENTED BY THE …, priority 2014, dated 2021).

Each compound was assayed against Human LDHA (Homo sapiens (Human), UniProt P00338) (assay: human LDHA primary biochemical assay (resazurin/diaphorase coupled, fluorescence)). Conditions: LDHA inhibitory activity, assay of Example 1; activity level classes.
From the text: Test compounds were placed in a Greiner Bio-One (Monroe, N.C.) 1536-well black solid bottom assay plate. 200 millimolar (mM) Tris HCl, pH 7.4, 100 micromolar […] EDTA and 0.01% TWEEN-20™, final concentration, was used as the assay buffer. The LDHA reagent was 2 nanomolar (nM) Human LDHA (Meridian Life Science, Inc., Memphis, Tenn.), final concentration, in assay buffer.

| SMILES | IC50 [nM] |
| --- | --- |
| NS(=O)(=O)c1ccc(Cc2cn(-c3nc(Br)cs3)nc2-c2ccccc2)cc1 [Compound 235] | 1000 to 57000 |
| COc1cccc(-c2cc(-c3c(Cc4ccc([S+](N)(=O)[O-])cc4)c(CC4CC4)nn3-c3nc(C(=O)O)cs3)ccc2F)c1 [Compound 236] | > 57000 |
| NS(=O)(=O)c1ccc(Cc2c(-c3ccc(F)c(-c4ccc(F)cc4)c3)nn(-c3nc(C(=O)O)cs3)c2C(F)(F)F)cc1 [Compound 240] | < 100 |
| NS(=O)(=O)c1ccc(Cc2c(-c3ccc(F)c(-c4cccc(F)c4)c3)nn(-c3nc(C(=O)O)cs3)c2C(F)(F)F)cc1 [Compound 241] | < 100 |
| COc1cccc(-c2cc(-c3nn(-c4nc(C(=O)O)cs4)c(C(F)(F)F)c3Cc3ccc(S(N)(=O)=O)cc3)ccc2F)c1 [Compound 242] | < 100 |
| Cc1ccc(-c2cc(-c3nn(-c4nc(C(=O)O)cs4)c(C(F)(F)F)c3Cc3ccc(S(N)(=O)=O)cc3)ccc2F)cc1 [Compound 243] | < 100 |
| CCOC(=O)c1csc(-n2nc(-c3cccc(-c4ccccc4)c3)c(Cc3ccc(S(N)(=O)=O)cc3F)c2C2CC2)n1 [Compound 244] | > 57000 |
| CCOC(=O)c1csc(-n2nc(-c3ccc(F)c(-c4ccc(C)cc4)c3)c(Cc3ccc(S(N)(=O)=O)c(F)c3)c2C2CC2)n1 [Compound 245] | 1000 to 57000 |
| CCOC(=O)c1csc(-n2nc(-c3ccc(F)c(-c4ccc(F)cc4)c3)c(Cc3ccc(S(N)(=O)=O)c(F)c3)c2C2CC2)n1 [Compound 246] | 1000 to 57000 |
| CCOC(=O)c1csc(-n2nc(-c3ccc(F)c(-c4cccc(F)c4)c3)c(Cc3ccc(S(N)(=O)=O)c(F)c3)c2C2CC2)n1 [Compound 247] | 1000 to 57000 |
| CCOC(=O)c1csc(-n2nc(-c3ccc(F)c(-c4cccc(OC)c4)c3)c(Cc3ccc(S(N)(=O)=O)c(F)c3)c2C2CC2)n1 [Compound 248] | > 57000 |
| Cc1ccc(-c2cc(-c3nn(-c4nc(C(=O)O)cs4)c(C4CC4)c3Cc3ccc(S(N)(=O)=O)c(F)c3)ccc2F)cc1 [Compound 249] | < 100 |
| NS(=O)(=O)c1ccc(Cc2c(-c3ccc(F)c(-c4ccc(F)cc4)c3)nn(-c3nc(C(=O)O)cs3)c2C2CC2)cc1F [Compound 250] | < 100 |
| Cc1ccc(-c2cc(-c3nn(-c4nc(C(=O)O)cs4)c(C4CC4)c3Cc3ccc(S(N)(=O)=O)cc3F)ccc2F)cc1 [Compound 253] | < 100 |
| NS(=O)(=O)c1ccc(Cc2c(-c3ccc(F)c(-c4ccc(F)cc4)c3)nn(-c3nc(C(=O)O)cs3)c2C2CC2)c(F)c1 [Compound 254] | < 100 |
| NS(=O)(=O)c1ccc(Cc2c(-c3ccc(F)c(-c4cccc(F)c4)c3)nn(-c3nc(C(=O)O)cs3)c2C2CC2)c(F)c1 [Compound 255] | < 100 |
| COc1cccc(-c2cc(-c3nn(-c4nc(C(=O)O)cs4)c(C4CC4)c3Cc3ccc([S+](N)(=O)[O-])cc3F)ccc2F)c1 [Compound 256] | < 100 |
| CC#Cc1cccc(-c2nn(-c3nc(C(=O)O)cs3)c(CC3CC3)c2Cc2ccc(S(N)(=O)=O)c(F)c2)c1 [Compound 270] | < 100 |
| C#Cc1c(Cc2ccc(S(N)(=O)=O)cc2)c(-c2ccccc2)nn1-c1nc(C(=O)O)cs1 [Compound 271] | 1000 to 57000 |
| CCOC(=O)c1csc(-n2nc(-c3ccccc3)c(Cc3ccc(S(N)(=O)=O)cc3)c2C2CC2)n1 [Compound 272] | > 57000 |
| CCOC(=O)c1csc(-n2nc(C3CCCCC3)c(Oc3ccc([S+](N)(=O)[O-])cc3)c2-c2ccccc2)n1 [Compound 273] | > 57000 |

| SMILES | IC50 [nM] |
| --- | --- |
| CCOC(=O)c1csc(-n2nc(-c3ccccc3)c(Oc3ccc([S+](N)(=O)[O-])cc3)c2C2CCCCC2)n1 [Compound 274] | > 57000 |
| COc1cc(-c2nn(-c3nc(C(=O)O)cs3)c(CC3CC3)c2Cc2ccc(S(N)(=O)=O)cc2)ccc1F [Compound 278] | < 100 |
| CCOC(=O)c1csc(-n2nc(-c3cccc(-c4ccccc4)c3)c(Cc3ccc(S(N)(=O)=O)cc3)c2CC2CC2)n1 [Compound 279] | 1000 to 57000 |
| Cc1ccc(-c2cccc(-c3nn(-c4nc(C(=O)O)cs4)c(CC4CC4)c3Cc3ccc(S(N)(=O)=O)cc3F)c2)cc1 [Compound 282] | < 100 |
| Cc1ccc(-c2cc(-c3c(Cc4ccc(S(N)(=O)=O)cc4F)c(CC4CC4)nn3-c3nc(C(=O)O)cs3)ccc2F)cc1 [Compound 285] | 1000 to 57000 |
| CCOC(=O)c1csc(-n2nc(-c3cccc(-c4ccccc4)c3)c(Cc3ccc(S(N)(=O)=O)cc3)c2C2(C(F)(F)F)CC2)n1 [Compound 297] | > 57000 |
| NS(=O)(=O)c1ccc(Cc2c(-c3cccc(-c4ccccc4)c3)nn(-c3nc(C(=O)O)cs3)c2C2(C(F)(F)F)CC2)cc1 [Compound 299] | 1000 to 57000 |
| NS(=O)(=O)c1ccc(Cc2c(-c3cccc(-c4ccccc4)c3)nn(-c3nc(C(=O)O)cs3)c2C2(C(F)(F)F)CC2)c(F)c1 [Compound 300] | 100 to 1000 |
| NS(=O)(=O)c1ccc(Cc2c(-c3cccc(-c4ccccc4)c3)nn(-c3nc(C(=O)O)cs3)c2C2(C(F)(F)F)CC2)cc1F [Compound 302] | 1000 to 57000 |
| Cc1ccc(-c2cccc(-c3nn(-c4nc(C(=O)O)cs4)c(C(F)(F)F)c3Cc3ccc(S(N)(=O)=O)cc3)c2)cc1 [Compound 311] | < 100 |
| N[S+](=O)([O-])c1ccc(Cc2c(-c3cccc(-c4ccc(F)cc4)c3)nn(-c3nc(C(=O)O)cs3)c2C(F)(F)F)cc1 [Compound 312] | < 100 |
| N[S+](=O)([O-])c1ccc(Cc2c(-c3cccc(-c4cccc(F)c4)c3)nn(-c3nc(C(=O)O)cs3)c2C(F)(F)F)cc1 [Compound 313] | < 100 |
| COc1cccc(-c2cccc(-c3nn(-c4nc(C(=O)O)cs4)c(C(F)(F)F)c3Cc3ccc(S(N)(=O)=O)cc3)c2)c1 [Compound 314] | < 100 |
| CCOC(=O)c1csc(-n2nc(CC3CC3)c(Cc3ccc(S(N)(=O)=O)cc3F)c2-c2ccc(F)c(-c3cccc(F)c3)c2)n1 [Compound 315] | > 57000 |
| CCOC(=O)c1csc(-n2nc(-c3ccc(F)c(-c4cccc(F)c4)c3)c(Cc3ccc(S(N)(=O)=O)cc3F)c2CC2CC2)n1 [Compound 316] | 1000 to 57000 |
| CCOC(=O)c1csc(-n2nc(CC3CC3)c(Cc3ccc(S(N)(=O)=O)c(F)c3)c2-c2ccc(F)c(-c3cccc(F)c3)c2)n1 [Compound 317] | > 57000 |
| CCOC(=O)c1csc(-n2nc(-c3ccc(F)c(-c4cccc(F)c4)c3)c(Cc3ccc(S(N)(=O)=O)c(F)c3)c2CC2CC2)n1 [Compound 318] | > 57000 |
| CCOC(=O)c1csc(-n2nc(CC3CC3)c(Cc3ccc(S(N)(=O)=O)cc3F)c2-c2ccc(F)c(-c3cccc(OC)c3)c2)n1 [Compound 319] | > 57000 |
| CCOC(=O)c1csc(-n2nc(-c3ccc(F)c(-c4cccc(OC)c4)c3)c(Cc3ccc(S(N)(=O)=O)cc3F)c2CC2CC2)n1 [Compound 320] | > 57000 |
| CCOC(=O)c1csc(-n2nc(CC3CC3)c(Cc3ccc(S(N)(=O)=O)c(F)c3)c2-c2ccc(F)c(-c3cccc(OC)c3)c2)n1 [Compound 321] | > 57000 |

Same assay, conditions: read-out: Inhibitory activity IC50

| SMILES | IC50 [nM] |
| --- | --- |
| Cc1ccc(-c2cc(-c3c(Cc4ccc(S(N)(=O)=O)c(F)c4)c(CC4CC4)nn3-c3nc(C(=O)O)cs3)ccc2F)s1 [Compound 228, 2-(3-(cyclopropylmethyl)-5-(4-fluoro-3-(5-methylthiophen-2-yl)phenyl)-4-(3-fluoro-4-sulfamoylbenzyl)-1H-pyrazol-1-yl)thiazole-4-carboxylic acid] | > 57000 |
| N[S+](=O)([O-])c1ccc(Cc2c(CC3CC3)nn(-c3nc(C(=O)O)cs3)c2-c2ccc(F)c(-c3cccc(F)c3)c2)cc1 [Compound 238] | 1000 to 57000 |
| N[S+](=O)([O-])c1ccc(Cc2c(Cc3ccccc3)nn(-c3nc(C(=O)O)cs3)c2-c2ccccc2)cc1 [Compound 275] | 1000 to 57000 |
| COc1cc(-c2c(Cc3ccc([S+](N)(=O)[O-])cc3)c(CC3CC3)nn2-c2nc(C(=O)O)cs2)ccc1F [Compound 277] | 1000 to 57000 |
| Cc1ccc(-c2cccc(-c3c(Cc4ccc([S+](N)(=O)[O-])cc4)c(CC4CC4)nn3-c3nc(C(=O)O)cs3)c2)cc1 [Compound 280] | 1000 to 57000 |
| Cc1ccc(-c2cc(-c3c(Cc4ccc([S+](N)(=O)[O-])cc4)c(CC4CC4)nn3-c3nc(C(=O)O)cs3)ccc2F)cc1 [Compound 283] | 1000 to 57000 |
| Cc1ccc(-c2cccc(-c3c(Cc4ccc([S+](N)(=O)[O-])c(F)c4)c(CC4CC4)nn3-c3nc(C(=O)O)cs3)c2)cc1 [Compound 286] | 1000 to 57000 |
| Cc1ccc(-c2cc(-c3c(Cc4ccc([S+](N)(=O)[O-])c(F)c4)c(CC4CC4)nn3-c3nc(C(=O)O)cs3)ccc2F)cc1 [Compound 287] | 1000 to 57000 |
| N[S+](=O)([O-])c1ccc(Cc2c(CC3CC3)nn(-c3nc(C(=O)O)cs3)c2-c2cccc(-c3ccccc3)c2)c(F)c1 [Compound 289] | 1000 to 57000 |
| N[S+](=O)([O-])c1ccc(Cc2c(CC3CC3)nn(-c3nc(C(=O)O)cs3)c2-c2cccc(-c3ccccc3)c2)cc1F [Compound 291] | 1000 to 57000 |
| N[S+](=O)([O-])c1ccc(Cc2c(CC3CC3)nn(-c3nc(C(=O)O)cs3)c2-c2ccc(F)c(-c3ccc(F)cc3)c2)cc1 [Compound 292] | 1000 to 57000 |
| N[S+](=O)([O-])c1ccc(Cc2c(CC3CC3)nn(-c3nc(C(=O)O)cs3)c2-c2ccc(F)c(-c3ccc(C4CC4)cc3)c2)cc1 [Compound 293] | 1000 to 57000 |
| N[S+](=O)([O-])c1ccc(Cc2c(CC3CC3)nn(-c3nc(C(=O)O)cs3)c2-c2ccc(F)c(Br)c2)cc1 [Compound 295] | 1000 to 57000 |
| N[S+](=O)([O-])c1ccc(Cc2c(C3(C(F)(F)F)CC3)nn(-c3nc(C(=O)O)cs3)c2-c2cccc(-c3ccccc3)c2)cc1F [Compound 301] | 1000 to 57000 |
| N[S+](=O)([O-])c1ccc(Cc2c(CC(F)(F)F)nn(-c3nc(C(=O)O)cs3)c2-c2cccc(-c3ccccc3)c2)cc1 [Compound 303] | 1000 to 57000 |
| CC(C)c1ccc(-c2cc(-c3c(Cc4ccc([S+](N)(=O)[O-])cc4)c(CC4CC4)nn3-c3nc(C(=O)O)cs3)ccc2F)cc1 [Compound 305] | 1000 to 57000 |
| N[S+](=O)([O-])c1ccc(Cc2c(CC3CC3)nn(-c3nc(C(=O)O)cs3)c2-c2ccc(F)c(-c3ccc(F)cc3)c2)c(F)c1 [Compound 308] | 1000 to 57000 |
